Data: patent publication US20040138231A1, “Pharmaceutical composition which comprise a solid dispersion of a hydroxypropyl-methylcellulose phthalate polymer” (priority 2001, published 2004)
Values after ≈ are worked out from the molar mass of the structure shown. Like-named read-outs stand apart in the source and are kept apart here. Values belong to the compound of their own block, whether it stands above or below them.

Key:
[1] = comparison compound of Kai T. et al., cited from earlier work
[2] = Solubility data for Compound 1 and the Antifungal; type: physicochemical
Factor Xa = Factor Xa (Homo sapiens, UniProt P00742); assay: Factor Xa inhibitory activity versus thrombin; type: biochemical; conditions: at concentrations which do not inhibit, or inhibit to a lesser extent
[3] = Solubility Data for Compound 2; type: physicochemical

Sequence of Factor Xa (P00742 235-488 limits assumed): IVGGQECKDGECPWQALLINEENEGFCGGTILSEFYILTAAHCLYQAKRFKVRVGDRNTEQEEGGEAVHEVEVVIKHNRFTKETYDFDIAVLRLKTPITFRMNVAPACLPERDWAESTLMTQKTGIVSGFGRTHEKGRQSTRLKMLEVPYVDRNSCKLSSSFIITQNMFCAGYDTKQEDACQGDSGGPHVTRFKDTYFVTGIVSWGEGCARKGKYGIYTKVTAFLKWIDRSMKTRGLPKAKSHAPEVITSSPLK
Sequence of Factor Xa (P00742 41-179 partner limits assumed): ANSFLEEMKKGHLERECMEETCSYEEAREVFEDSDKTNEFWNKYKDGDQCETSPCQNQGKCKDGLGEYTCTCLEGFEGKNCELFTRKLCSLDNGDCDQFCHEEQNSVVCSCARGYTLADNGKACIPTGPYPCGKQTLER

SMILES: CC(C)(Sc1ccc(-n2cncn2)nn1)C(O)(Cn1cncn1)c1ccc(F)cc1F (single isomer, unassigned; (+)) [Antifungal, (+)-2-(2,4-difluorophenyl)-3-methyl-1-(1H-1,2,4-triazol-1-yl)-3-[6-(1H-1,2,4-triazol-1-yl)pyridazin-3-ylthio]butan-2-ol]
solubility ([1]; Water): 1.2 µg/mL (≈ 2.7 µM)
solubility ([1]; pH1.2): 3.6 µg/mL (≈ 8.1 µM)
solubility ([1]; pH6.8): 1.2 µg/mL (≈ 2.7 µM)

solubility in the duodenum, ileum and colon ([2]; main sites of adsorption): low solubility
solubility ([2]; water): < 5 µg/mL
SMILES: O=C(c1ccc(-c2ccncc2)cc1)N1CCN(S(=O)(=O)c2ccc3cc(Cl)ccc3c2)CC1 [Compound 1, 1-(6-chloronaphth-2-ylsulfonyl)-4-[4-(4-pyridyl)benzoyl]piperazine]
solubility at the acidic pH of the stomach ([2]; stomach pH): soluble within the acidic pH of the stomach
Factor Xa inhibitory activity relative to thrombin inhibition (Factor Xa): possesses Factor Xa inhibitory activity at concentrations which do not inhibit, or which inhibit to a lesser extent, the enzyme thrombin

solubility ([3]; 0.1M hydrochloric acid, pH 1.4, simulated gastric fluid): 585 µg/mL (≈ 1220 µM)
solubility ([3]; 0.9% saline, pH 2.5, saline or isotonic): 227 µg/mL (≈ 472 µM)
solubility ([3]; aqueous buffer, pH 3 citrate buffer, pH 2.9): 193 µg/mL (≈ 401 µM)
solubility ([3]; aqueous buffer, pH 5 citrate buffer, pH 5.0): 3 µg/mL (≈ 6.24 µM)
solubility ([3]; aqueous buffer, pH 7 phosphate buffer, pH 7.1): < 2 µg/mL
solubility ([3]; water, pH 2.6, water): 301 µg/mL (≈ 626 µM)
SMILES: O=C(c1ccc(-c2ccncc2)cc1)N1CCN(S(=O)(=O)c2cc3cc(Cl)ccc3[nH]2)CC1 [Compound 2, 1-(5-chloroindol-2-ylsulfonyl)-4-[4-(4-pyridyl)benzoyl]piperazine]
Stability of sample in solubility test ([3]; 0.1M sodium hydroxide, pH 12.7): NR* = no result, sample shows evidence of degradation.
